{
  "source": "patent US20220362174A1",
  "about": "“Use of R-enantiomer Beta2-agonists for prevent and treatment of pulmonary inflammation and inflammatory remodeling for reduced adverse effects” (priority 2019, published 2022)",
  "key": {"OVA induced asthma mice": {"system": "OVA induced asthma mice", "experiment": "Combination therapy of ipratropium with R- and S-salbutamol: lung histopathology (Masson, PAS)", "format": "in vivo", "method": "Left lung tissue was obtained for histopathology and fixed in 10% formalin for 24 h, followed by paraffin-embedded and then were sectioned at 4 μm for routine staining with hematoxylin and eosin (H&E, Solarbio, Beijing, China), or with periodic acid-Schiff (PAS, Solarbio, Beijing, China), or submitted to Masson's trichrome staining (Baso, Zhuhai, China). Images of the stained lung sections were obtained by an Axisplus image-capturing system (Zeiss, Germany) and then a minimum of 3 bronchi (luminal diameter, 150-500 μm) were analyzed per mice for various parameters using an image analyzing computer system (IPP) by pathologists blinded to grouping. Histological score, airway smooth muscle thickness, PAS score (goblet cells hyperplasia), and collagen deposition were evaluated by a semi-quantitative scoring method.\nMethods used were similar as mentioned above. Nebulized aerosol of saline, Methacholine 2 mg/ml (low dose) or 10 mg/ml (high dose) were given via inhalation to OVA induced asthma mice."}, "[1]": {"system": "LPS-induced RAW264.7 cells", "experiment": "Seahorse analysis of OCR and ECAR", "format": "cell-based", "conditions": "LPS-treated cells", "method": "(§1) Macrophages were treated without or with (R)/(S)-salbutamol for 1 h prior to LPS stimulation and subsequently incubated for 12 h. […] The fluorescence of the oxidized product (2′,7′-dichlorofluorescein, DCF) was assessed using an LSM710 Laser Scanning Confocal Microscope (Carl Zeiss, Jena, Germany). The concentration of NO in the culture supernatant was measured by assaying the concentrations of nitrite (a stable NO breakdown product) using the Griess assay (Beyotime, Shanghai, China), according to the manufacturer's instructions. The intracellular NO level was detected using the NO-sensitive fluorescence probe DAF-FM DA (Sigma, St. Louis, Mo., USA) (24). Cells were labeled with DAF-FM DA (10 μM) at 37° C. for 30 min and were gently washed three times with PBS. Fluorescence was detected using a LSM710 Laser Scanning Confocal Microscope (Scale bars, 100 μm) (Carl Zeiss, Jena, Germany).\nMacrophage activation elicited different metabolic profiles. LPS-induced macrophages adopted glycolytic metabolic profiles. This invention disclosed a β2 adrenergic receptor mediated Warburg metabolism (aerobic glycolysis) of in LPS treated macrophages. The OCR and ECAR were measured using an extracellular flux analyzer. […] ECAR is a measurement extracellular acidification rate, an indication of cellular glycolytic rate."}, "[2]": {"system": "macrophages from the peritoneal fluid", "experiment": "LPS-induced proliferation and polarization of macrophages from the peritoneal fluid (sepsis)", "format": "in vivo", "text": "Macrophage activation and proliferation was considered to be the key step of initiation and development of sepsis. In one embodiment, LPS (PAMPs from bacteria) induced a proliferation and polarization of macrophages from the peritoneal fluid. […] These inhibitory effects can be blocked by using specific β2-recepter blocker."}, "iNOS": {"system": "iNOS", "experiment": "iNOS mRNA and protein levels", "format": "cell-based", "method": "(§2) In addition, the concentration of NO in the culture supernatant was measured by assaying the concentrations of nitrite (a stable NO breakdown product) using the Griess assay. […] To investigate (R)-salbutamol role on the level of iNOS, the mRNA and protein levels of iNOS were determined."}, "[3]": {"system": "LPS-induced RAW264.7 cells", "experiment": "NO production (DAF-FM DA probe, Griess assay)", "format": "cell-based", "method": "as §1, §2"}},
  "note": "Entries after “also recorded” stand apart in the source; their conditions may differ.",
  "data": [
    {"smiles": "CC(C)(C)NC[C@H](O)c1ccc(O)c(CO)c1", "note": "[R-salbutamol, (R)-Salbutamol]", "values": [
      {"measurement": "PAS staining: goblet cell hyperplasia, mucus over secretion, airway edema", "setting": "OVA induced asthma mice; vs OVA model", "result": "significant therapeutic benefit"},
      {"measurement": "Masson staining: collagen deposition, wall thickness of bronchiole and vascular vessels", "setting": "OVA induced asthma mice; vs ova (model) group", "result": "significant therapeutic effects"},
      {"measurement": "ECAR, aerobic glycolysis", "setting": "[1]", "result": "inhibited the aerobic glycolysis; also recorded: significantly reduced aerobic glycolysis"},
      {"measurement": "number of macrophages from the peritoneal fluid", "setting": "[2]; LPS sepsis", "result": "significantly reduced toward normal level"},
      {"measurement": "polarized M1 macrophages or M2 macrophages", "setting": "[2]; in comparison of sepsis condition", "result": "significant reduction"},
      {"measurement": "iNOS protein levels", "setting": "iNOS; LPS+ (R)-salbutamol vs LPS", "result": "same changes"},
      {"measurement": "iNOS mRNA level", "setting": "iNOS; pretreated plus LPS, vs LPS", "result": "decreased; also recorded: inhibited"},
      {"measurement": "production/levels of NO (in words)", "setting": "[3]; LPS-induced cells", "result": "significantly decreased; also recorded: inhibited"},
      {"measurement": "decrease of the level of DAF fluorescence (intracellular NO)", "setting": "[3]; pretreated before LPS, LPS increased by 424% vs control", "result": 2.68, "unit": "fold"},
      {"measurement": "decrease of NO2- expression (Griess assay, culture supernatant)", "setting": "[3]; pretreatment before LPS, LPS increased 20.25-fold vs control", "result": 2.28, "unit": "fold"}
    ]}
  ]
}
